Results taken from patent publication EP1180513A1, “CYCLIC AMIDE COMPOUNDS, PROCESS FOR THE PREPARATION OF THE SAME AND USES THEREOF” (Takeda Chemical Industries, Ltd., priority 1999, dated 2000).
Structures can show the parent of a compound that is named as a salt.

Target: T1, human CCR5 (Homo sapiens, UniProt P51681)
T1 construct: expressed in transfected cells
Assay: CCR5 binding inhibition: [125I]-RANTES binding to CHO/CCR5 cells
Settings: Test Compound 1 µM, 100 pM [125I]-RANTES as ligand, room temperature, 40 minutes, read-out: Inhibitory rate (%) at 1.0 µM
Procedure: CHO-K1 cells were grown in 750ml of tissue culture flask (Becton Dickinson) using Ham's F12 medium (Nihon Pharmaceutical) containing 10% fetal calf serum (Life Tech Oriental) and took off with 0.5 g/L trypsin-0.2 g/L EDTA (Life Tech Oriental). The cells were washed with PBS (Life Tech Oriental), centrifuged (1000 rpm, 5 minutes), and suspended in PBS. With using Gene Pulser (Bio-Rad Laboratories), DNA was introduced into the cells under the conditions shown below. That is, to the cuvette of 0.4 cm gap were added 8×10^6 cells and 10 µg of plasmid pCKR5 for expression of human CCR5, and electroporation was carried out under 0.25 kV of voltage and 960 µF of capacitance. The cells were transferred into Ham's F12 medium containing 10% fetal calf serum, and cultivated for 24 hours. The cells were again took off and centrifuged, and suspended in Ham's F12 medium containing 10% fetal calf serum and 500 µg/ml of geneticin (Life Tech Oriental). The suspension was diluted to give 10^4 cells/ml of the suspension, which was inoculated on 96 well plate (Becton Dickinson) to give resistant cells. The resulting geneticin resistant cells were cultivated in 96 well plate (Becton Dickinson), and cells expressing CCR5 were selected from the geneticin resistant cells. That is, in assay buffer (Ham's F12 medium containing 0.5% BSA and 20 mM HEPES (Wako Pure Chemical, pH 7.2)) to which was added 200 pM of [^125I]-RANTES (Amersham) as ligand, binding reaction was carried out at room temperature for 40 minutes, and the buffer was washed with cooled PBS. To the buffer was added 50 µl/well of 1M NaOH, and the mixture was stirred. Radioactivity was determined with γ-counter to select CHO/CCR5 cells which specifically bind to the ligand.
The CHO/CCR5 were inoculated on 96 well microplate (5×10^4 cells/well) and cultivated for 24 hours. The medium was removed by means of suction, and to each well was added assay buffer containing Test Compound (1 µM) and then 100 pM of [^125I]-RANTES (Amersham) as ligand. Binding assay was carried out at room temperature for 40 minutes, and assay buffer was removed by means of suction. Each well was washed twice with cooled PBS, and 200 µl of Microscint-20 (Packard Instrument, Inc.) was added to each well. Radio-activity was determined with Top-Count (Packard Instrument, Inc.).
According to the method described above, inhibition rate of Test Compound to CCR5 binding.

T1 sequence (P51681 whole entry): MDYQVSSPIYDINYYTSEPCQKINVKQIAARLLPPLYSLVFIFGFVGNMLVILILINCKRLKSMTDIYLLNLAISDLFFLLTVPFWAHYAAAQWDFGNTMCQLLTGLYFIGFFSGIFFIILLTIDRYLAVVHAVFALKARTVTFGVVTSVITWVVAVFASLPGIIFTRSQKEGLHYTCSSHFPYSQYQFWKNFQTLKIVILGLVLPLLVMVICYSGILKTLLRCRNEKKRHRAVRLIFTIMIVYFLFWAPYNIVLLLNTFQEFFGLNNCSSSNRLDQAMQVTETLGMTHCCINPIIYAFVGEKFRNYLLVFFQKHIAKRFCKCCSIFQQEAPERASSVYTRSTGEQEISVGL

inhibition at 1 µM	Structure (SMILES)
92%	CN1CC(C(=O)N(CCCN2CCC(Cc3ccc(F)cc3)CC2)c2ccc(Cl)c(Cl)c2)CC1=O (stereo not drawn) [Example 84, N-(3,4-dichlorophenyl)-N-{3-[4-(4-fluorobenzyl)-1-piperidinyl]propyl}-1-methyl-5-oxo-3-pyrrolidinecarboxamide hydrochloride]
67%	CN1CC(C(=O)N(CCCN2CCC(Cc3ccccc3)CC2)Cc2ccccc2)CC1=O (stereo not drawn) [Example 62, N-benzyl-N-[3-(4-benzyl-1-piperidinyl)propyl]-1-methyl-5-oxo-3-pyrrolidinecarboxamide]
90%	O=C1CC(C(=O)N(CCCN2CCC(Cc3ccccc3)CC2)c2ccccc2)CN1CC(F)(F)F (stereo not drawn) [Example 93, N-[3-(4-benzyl-1-piperidinyl)propyl]-5-oxo-N-phenyl-1-(2,2,2-trifluoroethyl)-3-pyrrolidinecarboxamide]
91%	O=C1CC(C(=O)N(CCCN2CCC(Cc3ccccc3)CC2)c2ccccc2)CN1Cc1ccccc1Cl (stereo not drawn) [Example 76, N-[3-(4-benzyl-1-piperidinyl)propyl]-1-(2-chlorobenzyl)-5-oxo-N-phenyl-3-pyrrolidinecarboxamide]

The remaining lines, values behind:

Structure (SMILES)	inhibition at 1 µM
O=C1CC(C(=O)N(CCCN2CCC(Cc3ccccc3)CC2)c2ccccc2)CN1c1ccccc1 (stereo not drawn) [Example 52, N-[3-(4-benzyl-1-piperidinyl)propyl]-5-oxo-N,1-diphenyl-3-pyrrolidinecarboxamide]	76%
CN1CC(C(=O)N(CCCN2CCC(Cc3ccccc3)CC2)c2ccc(Cl)c(Cl)c2)CC1=O (stereo not drawn) [Example 23, N-[3-(4-benzyl-1-piperidinyl)propyl]-N-(3,4-dichlorophenyl)-1-methyl-5-oxo-3-pyrrolidinecarboxamide hydrochloride]	95%
CN1CC(C(=O)N(CCCN2CCC(C(=O)c3ccc(F)cc3)CC2)c2ccccc2)CC1=O (stereo not drawn) [Example 13, N-{3-[4-(4-fluorobenzoyl) -1-piperidinyl]propyl}-1-methyl-5-oxo-N-phenyl-3-pyrrolidinecarboxamide]	40%
CN1CC(C(=O)N(CCCCN2CCC(C(=O)c3ccc(F)cc3)CC2)c2ccccc2)CC1=O (stereo not drawn) [Example 17, N-{4-[4-(4-fluorobenzoyl)-1-piperidinyl]butyl}-1-methyl-5-oxo-N-phenyl-3-pyrrolidinecarboxamide]	22%
CN1CC(C(=O)N(CCCN2CCC(Cc3ccccc3)CC2)c2ccccc2)CC1=O (stereo not drawn) [Example 1, N-[3-(4-benzyl-1-piperidinyl)propyl]-1-methyl-5-oxo-N-phenyl-3-pyrrolidinecarboxamide hydrochloride]	57%
O=C1CC(C(=O)N(CCCN2CCC(Cc3ccccc3)CC2)c2ccccc2)CN1Cc1ccccc1 (stereo not drawn) [Example 51, 1-benzyl-N-[3-(4-benzyl-1-piperidinyl)propyl]-5-oxo-N-phenyl-3-pyrrolidinecarboxamide]	92%
CN1CC(C(=O)N(CCCN2CCC(Cc3ccccc3)CC2)c2cccc(Cl)c2)CC1=O (stereo not drawn) [Example 38, N-[3-(4-benzyl-1-piperidinyl)propyl]-N-(3-chlorophenyl)-1-methyl-5-oxo-3-pyrrolidinecarboxamide hydrochloride]	82%
CN1CC(C(=O)N(CCCN2CCC3(C=Cc4ccccc43)CC2)c2ccccc2)CC1=O (stereo not drawn) [Example 8, N-[3-(indene-1-spiro-4'-piperidin-1'-yl)propyl]-1-methyl-5-oxo-N-phenyl-3-pyrrolidinecarboxamide fumarate]	24%
